Source: BindingDB's records for doi:10.1124/jpet.300.1.314 (Glaxosmithkline, 2002)
“And” between values parts separate entries of the source, which are not always exact repeats. Equal entries are not always repeated.

How the values were obtained:
Substance-K receptor [1] = target: T1, Substance-K receptor (Cavia porcellus, UniProt Q64077)
T1 sequence (Q64077 whole entry): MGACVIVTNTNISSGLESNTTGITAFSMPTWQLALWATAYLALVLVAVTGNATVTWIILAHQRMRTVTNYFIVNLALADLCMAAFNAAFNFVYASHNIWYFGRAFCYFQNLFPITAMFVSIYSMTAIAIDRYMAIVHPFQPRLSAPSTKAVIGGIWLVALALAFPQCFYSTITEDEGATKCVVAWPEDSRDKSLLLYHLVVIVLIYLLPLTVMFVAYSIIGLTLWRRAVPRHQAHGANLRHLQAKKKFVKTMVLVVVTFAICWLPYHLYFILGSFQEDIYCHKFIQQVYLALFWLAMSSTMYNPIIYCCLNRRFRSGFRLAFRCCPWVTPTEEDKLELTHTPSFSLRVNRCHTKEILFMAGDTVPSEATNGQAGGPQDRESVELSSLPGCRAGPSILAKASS

Substance-K receptor [2] = target: T2, Substance-K receptor (Rattus norvegicus, UniProt P16610)
T2 sequence (P16610 whole entry): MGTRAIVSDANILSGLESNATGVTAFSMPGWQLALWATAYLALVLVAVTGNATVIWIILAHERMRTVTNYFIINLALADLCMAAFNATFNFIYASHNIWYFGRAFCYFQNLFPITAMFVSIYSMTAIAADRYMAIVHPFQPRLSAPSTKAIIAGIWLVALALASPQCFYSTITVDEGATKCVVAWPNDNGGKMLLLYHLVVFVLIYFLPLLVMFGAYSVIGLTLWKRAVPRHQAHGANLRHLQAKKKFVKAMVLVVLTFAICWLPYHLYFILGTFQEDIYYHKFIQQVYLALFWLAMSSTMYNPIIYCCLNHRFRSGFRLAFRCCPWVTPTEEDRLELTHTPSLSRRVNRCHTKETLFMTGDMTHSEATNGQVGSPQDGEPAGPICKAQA

SMILES: CC[C@H](NC(=O)c1c(OCC(=O)O)c(-c2ccccc2)nc2ccccc12)c1ccccc1 [N-[(S)-1-Phenylpropyl]-2-phenyl-3-(carboxymethoxy)quinoline-4-carboxamide]
- Ki (Substance-K receptor [1]): > 10 µM
- Ki (Substance-K receptor [2]): 2.33 µM and 5.25 µM
